Reference: ChEMBL document CHEMBL1909046, “DrugMatrix in vitro pharmacology data”

Tests used:
[1] = biological target: Sigma non-opioid intracellular receptor 1 (Homo sapiens, UniProt Q99720); experiment: DRUGMATRIX: Sigma1 radioligand binding (ligand: [3H] Haloperidol); assay type: cell membranes, Jurkat, Membrane; settings: Not Active = under 50% inhibition at 10 µM
[2] = DRUGMATRIX: Imidazoline I2, Central radioligand binding (ligand: [3H] Idazoxan); assay type: cell membranes, Rattus norvegicus, Wistar, Cerebral cortex, Membrane; settings: Not Active = under 50% inhibition at 10 µM
[3] = biological target: T1, Neuropeptide Y receptor type 1 (Homo sapiens, UniProt P25929); assay type: cell membranes, Membrane; settings: sk-n-mc; further: in other assays of this panel Not Active means under 50% inhibition at 10 µM
T1 sequence (P25929 whole entry): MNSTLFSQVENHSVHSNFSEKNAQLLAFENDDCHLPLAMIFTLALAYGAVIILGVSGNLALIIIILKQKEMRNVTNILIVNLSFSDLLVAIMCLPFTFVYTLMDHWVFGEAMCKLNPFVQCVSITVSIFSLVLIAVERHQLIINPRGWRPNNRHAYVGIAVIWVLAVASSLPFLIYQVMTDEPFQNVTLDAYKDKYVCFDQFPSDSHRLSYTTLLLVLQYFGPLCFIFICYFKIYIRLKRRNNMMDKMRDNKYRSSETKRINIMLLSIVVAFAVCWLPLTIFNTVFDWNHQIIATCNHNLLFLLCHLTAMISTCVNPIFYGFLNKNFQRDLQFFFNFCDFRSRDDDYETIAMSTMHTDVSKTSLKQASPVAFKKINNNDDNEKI

Nitric oxide synthase 1 = Nitric oxide synthase 1 (Rattus norvegicus, UniProt P29476); assay type: tissue-based, Cerebellum; further: in other assays of this panel Not Active means under 50% inhibition at 10 µM
Sequence of Nitric oxide synthase 1 (P29476 whole entry): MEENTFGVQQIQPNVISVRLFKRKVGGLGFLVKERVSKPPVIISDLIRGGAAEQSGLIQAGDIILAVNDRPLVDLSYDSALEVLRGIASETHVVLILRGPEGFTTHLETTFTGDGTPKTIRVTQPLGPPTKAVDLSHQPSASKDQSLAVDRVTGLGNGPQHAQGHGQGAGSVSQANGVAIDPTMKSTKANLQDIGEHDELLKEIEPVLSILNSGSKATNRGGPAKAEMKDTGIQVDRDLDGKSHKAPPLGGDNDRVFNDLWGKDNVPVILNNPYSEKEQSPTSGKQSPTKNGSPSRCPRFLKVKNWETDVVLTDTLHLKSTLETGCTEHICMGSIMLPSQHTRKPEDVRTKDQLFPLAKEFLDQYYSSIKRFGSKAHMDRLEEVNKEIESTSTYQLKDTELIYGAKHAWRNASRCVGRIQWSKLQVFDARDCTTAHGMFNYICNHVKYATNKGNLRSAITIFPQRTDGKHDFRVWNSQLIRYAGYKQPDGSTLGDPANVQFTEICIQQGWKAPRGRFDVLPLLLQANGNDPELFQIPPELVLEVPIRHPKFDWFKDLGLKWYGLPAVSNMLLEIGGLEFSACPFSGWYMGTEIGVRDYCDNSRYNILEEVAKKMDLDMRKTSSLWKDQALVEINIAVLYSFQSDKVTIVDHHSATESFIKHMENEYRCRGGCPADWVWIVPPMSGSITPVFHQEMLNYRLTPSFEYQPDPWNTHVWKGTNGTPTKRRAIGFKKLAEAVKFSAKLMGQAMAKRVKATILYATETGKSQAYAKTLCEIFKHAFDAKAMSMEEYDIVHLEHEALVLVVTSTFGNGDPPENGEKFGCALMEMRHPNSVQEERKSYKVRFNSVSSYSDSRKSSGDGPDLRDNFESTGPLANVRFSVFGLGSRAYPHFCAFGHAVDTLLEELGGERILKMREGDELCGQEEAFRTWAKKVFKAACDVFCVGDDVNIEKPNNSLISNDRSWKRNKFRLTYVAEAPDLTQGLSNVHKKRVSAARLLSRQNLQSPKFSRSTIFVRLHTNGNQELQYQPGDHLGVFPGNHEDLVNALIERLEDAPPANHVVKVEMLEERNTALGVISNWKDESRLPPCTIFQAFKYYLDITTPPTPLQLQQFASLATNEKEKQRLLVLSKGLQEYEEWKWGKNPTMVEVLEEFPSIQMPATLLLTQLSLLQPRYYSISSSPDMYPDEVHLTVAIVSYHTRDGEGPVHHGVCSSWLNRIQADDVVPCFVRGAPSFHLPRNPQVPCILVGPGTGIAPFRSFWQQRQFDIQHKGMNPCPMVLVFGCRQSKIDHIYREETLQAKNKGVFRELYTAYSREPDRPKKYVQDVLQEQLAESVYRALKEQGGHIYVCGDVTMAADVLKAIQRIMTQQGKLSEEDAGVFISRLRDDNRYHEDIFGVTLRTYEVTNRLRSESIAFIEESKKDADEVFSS

[4] = biological target: 5-hydroxytryptamine receptor 1B (Rattus norvegicus, UniProt P28564); assay type: cell membranes, Wistar, Cerebral cortex, Membrane; settings: for Ki: read-out: Ki; on all read-outs here: in other assays of this panel Not Active means under 50% inhibition at 10 µM
Sequence of 5-hydroxytryptamine receptor 1B (P28564 whole entry): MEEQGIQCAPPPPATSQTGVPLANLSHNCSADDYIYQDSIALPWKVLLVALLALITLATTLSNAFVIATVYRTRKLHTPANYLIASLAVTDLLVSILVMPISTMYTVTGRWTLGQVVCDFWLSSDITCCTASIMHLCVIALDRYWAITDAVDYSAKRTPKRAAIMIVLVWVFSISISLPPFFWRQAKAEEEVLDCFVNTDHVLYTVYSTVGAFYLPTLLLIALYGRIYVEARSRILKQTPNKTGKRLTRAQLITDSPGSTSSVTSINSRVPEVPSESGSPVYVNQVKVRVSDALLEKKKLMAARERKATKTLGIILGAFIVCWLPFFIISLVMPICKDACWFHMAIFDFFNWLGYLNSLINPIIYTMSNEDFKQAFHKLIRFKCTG

Cytochrome P450 2E1 = Cytochrome P450 2E1 (Homo sapiens, UniProt P05181); settings: bti-tn-5b1-4; further: in other assays of this panel Not Active means under 50% inhibition at 10 µM
Sequence of Cytochrome P450 2E1 (P05181 whole entry): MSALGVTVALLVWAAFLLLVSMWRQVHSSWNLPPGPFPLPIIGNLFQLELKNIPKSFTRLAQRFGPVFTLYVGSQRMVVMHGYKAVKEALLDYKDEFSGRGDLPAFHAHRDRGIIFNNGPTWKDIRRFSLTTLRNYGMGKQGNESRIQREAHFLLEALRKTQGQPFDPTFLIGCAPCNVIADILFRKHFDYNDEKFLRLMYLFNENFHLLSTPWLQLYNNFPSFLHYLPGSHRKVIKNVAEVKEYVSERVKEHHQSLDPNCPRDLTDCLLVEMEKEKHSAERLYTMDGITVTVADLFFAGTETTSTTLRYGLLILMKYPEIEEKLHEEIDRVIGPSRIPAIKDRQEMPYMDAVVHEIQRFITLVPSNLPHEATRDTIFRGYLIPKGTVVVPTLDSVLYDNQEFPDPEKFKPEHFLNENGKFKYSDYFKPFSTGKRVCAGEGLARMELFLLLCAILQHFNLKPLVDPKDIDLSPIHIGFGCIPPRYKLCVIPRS

Sequence of Sigma non-opioid intracellular receptor 1 (Q99720 whole entry): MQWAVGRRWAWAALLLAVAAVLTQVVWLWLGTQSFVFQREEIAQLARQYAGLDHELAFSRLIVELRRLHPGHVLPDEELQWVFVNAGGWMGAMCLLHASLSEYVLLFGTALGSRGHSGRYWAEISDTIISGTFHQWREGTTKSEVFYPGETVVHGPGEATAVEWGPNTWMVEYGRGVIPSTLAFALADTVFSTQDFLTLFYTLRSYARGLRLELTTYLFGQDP

| Compound | IC50 ([1]; jurkat) | IC50 [2] | Ki [2] | IC50 [3] | IC50 (Nitric oxide synthase 1) | IC50 [4] | IC50 (Cytochrome P450 2E1) | Ki (Cytochrome P450 2E1) | IC50 ([2]; read-out: IC50) [nM] | Ki ([2]; read-out: Ki) [nM] | IC50 ([4]; read-out: IC50) [nM] | Ki [4] [nM] | IC50 ([1]; read-out: IC50) [nM] | Ki ([1]; read-out: Ki) [nM] |
| --- | --- | --- | --- | --- | --- | --- | --- | --- | --- | --- | --- | --- | --- | --- |
| CC(C)(C)NCC(O)c1cc(Cl)c(N)c(Cl)c1 (stereo not given) [CLENBUTEROL] | Not Active | Not Active | Not Active | Not Active | Not Active | Not Active | Not Active | Not Active |  |  |  |  |  |  |
| CC(O)CO (stereo not given) [PROPYLENE GLYCOL] | Not Active | Not Active | Not Active | Not Active | Not Active | Not Active | Not Active | Not Active |  |  |  |  |  |  |
| CC1Cc2ccccc2N1NC(=O)c1ccc(Cl)c(S(N)(=O)=O)c1 (stereo not given) [INDAPAMIDE] | Not Active | Not Active | Not Active | Not Active | Not Active | Not Active | Not Active | Not Active |  |  |  |  |  |  |
| c1ccc(Nc2ccc(Nc3ccccc3)cc2)cc1 | Not Active | Not Active | Not Active | Not Active | Not Active | Not Active | Not Active | Not Active |  |  |  |  |  |  |
| COc1cc2nc(N3CCN(C(=O)C4COc5ccccc5O4)CC3)nc(N)c2cc1OC (stereo not given) [DOXAZOSIN] | Not Active | Not Active | Not Active | Not Active | Not Active | Not Active | Not Active | Not Active |  |  |  |  |  |  |
| CCOc1ccc(NC(C)=O)cc1 [PHENACETIN] | Not Active | Not Active | Not Active | Not Active | Not Active | Not Active | Not Active | Not Active |  |  |  |  |  |  |
| CN(C)CCCN1c2ccccc2Sc2ccc(Cl)cc21 [CHLORPROMAZINE] |  |  |  | Not Active | Not Active |  | Not Active | Not Active | 2670 | 1780 | 4040 | 1840 |  |  |
| CC(C)[C@H]1C(=O)N2CCC[C@H]2[C@]2(O)O[C@](NC(=O)[C@@H]3C=C4c5cccc6[nH]cc(c56)C[C@H]4N(C)C3)(C(C)C)C(=O)N12 [ERGOCORNINE] | Not Active |  |  | Not Active | Not Active |  | Not Active | Not Active | 4.49 | 2.99 | 30 | 19 |  |  |
| CC(C)(Oc1ccc(Cl)cc1)C(=O)O [CLOFIBRIC ACID] | Not Active | Not Active | Not Active | Not Active | Not Active | Not Active | Not Active | Not Active |  |  |  |  |  |  |
| CCC(C)n1ncn(-c2ccc(N3CCN(c4ccc(OCC5COC(Cn6cncn6)(c6ccc(Cl)cc6Cl)O5)cc4)CC3)cc2)c1=O (stereo not given) [ITRACONAZOLE] | Not Active | Not Active | Not Active | Not Active | Not Active | Not Active | Not Active | Not Active |  |  |  |  |  |  |
| O=c1oc2ccccc2c(O)c1Cc1c(O)c2ccccc2oc1=O [DICUMAROL] | Not Active | Not Active | Not Active | Not Active | Not Active | Not Active | Not Active | Not Active |  |  |  |  |  |  |
| Cc1onc(O)c1CC(N)C(=O)O (racemic) [(R,S)-AMPA] | Not Active | Not Active | Not Active | Not Active | Not Active | Not Active | Not Active | Not Active |  |  |  |  |  |  |
| CC1=C2C(=CO[C@H](C)[C@H]2C)C(O)=C(C(=O)O)C1=O [CITRININ] | Not Active | Not Active | Not Active | Not Active | Not Active | Not Active | Not Active | Not Active |  |  |  |  |  |  |
| Nc1nc2c(ncn2COCCO)c(=O)[nH]1 [ACYCLOVIR] | Not Active | Not Active | Not Active | Not Active | Not Active | Not Active | Not Active | Not Active |  |  |  |  |  |  |
| CCOC(=O)C1=C(COCCN)NC(C)=C(C(=O)OC)C1c1ccccc1Cl (stereo not given) [AMLODIPINE] | Not Active | Not Active | Not Active | Not Active | Not Active | Not Active | Not Active | Not Active |  |  |  |  |  |  |
| O=C1CC[C@@H](N2C(=O)c3ccccc3C2=O)C(=O)N1 | Not Active | Not Active | Not Active | Not Active | Not Active | Not Active | Not Active | Not Active |  |  |  |  |  |  |
| Cc1ccc(N(CC2=NCCN2)c2cccc(O)c2)cc1 [PHENTOLAMINE] | Not Active |  |  | Not Active | Not Active | Not Active | Not Active | Not Active | 58 | 39 |  |  |  |  |

| Compound | IC50 ([1]; jurkat) | IC50 [2] | Ki [2] | IC50 [3] | IC50 (Nitric oxide synthase 1) | IC50 [4] | IC50 (Cytochrome P450 2E1) | Ki (Cytochrome P450 2E1) | IC50 ([2]; read-out: IC50) [nM] | Ki ([2]; read-out: Ki) [nM] | IC50 ([4]; read-out: IC50) [nM] | Ki [4] [nM] | IC50 ([1]; read-out: IC50) [nM] | Ki ([1]; read-out: Ki) [nM] |
| --- | --- | --- | --- | --- | --- | --- | --- | --- | --- | --- | --- | --- | --- | --- |
| CC(C)C(Br)C(=O)NC(N)=O (stereo not given) [BROMISOVALUM] | Not Active | Not Active | Not Active | Not Active | Not Active | Not Active | Not Active | Not Active |  |  |  |  |  |  |
| Cc1ccccc1N1C(=O)c2cc(S(N)(=O)=O)c(Cl)cc2NC1C (stereo not given) [METOLAZONE] | Not Active | Not Active | Not Active | Not Active | Not Active | Not Active | Not Active | Not Active |  |  |  |  |  |  |
| C1CCC(C(CC2CCCCN2)C2CCCCC2)CC1 (stereo not given) [PERHEXILINE] |  | Not Active | Not Active | Not Active | Not Active | Not Active | Not Active | Not Active |  |  |  |  | 2600 | 1090 |
| CC(C)CN(C[C@@H](O)[C@H](Cc1ccccc1)NC(=O)O[C@H]1CCOC1)S(=O)(=O)c1ccc(N)cc1 | Not Active | Not Active | Not Active | Not Active | Not Active | Not Active | Not Active | Not Active |  |  |  |  |  |  |
| Cc1ccc2cc3c(ccc4ccccc43)c3c2c1CC3 [3-METHYLCHOLANTHRENE] | Not Active | Not Active | Not Active | Not Active | Not Active | Not Active | Not Active | Not Active |  |  |  |  |  |  |
| Nc1nc2c(ncn2CCC(CO)CO)c(=O)[nH]1 [PENCICLOVIR] | Not Active | Not Active | Not Active | Not Active | Not Active | Not Active | Not Active | Not Active |  |  |  |  |  |  |
| CN(C)C(=O)Oc1cc(OC(=O)N(C)C)cc(C(O)CNC(C)(C)C)c1 (stereo not given) [BAMBUTEROL] | Not Active | Not Active | Not Active | Not Active | Not Active | Not Active | Not Active | Not Active |  |  |  |  |  |  |
| Nc1nc(N)nc(-c2cc(Cl)ccc2Cl)n1.O=C(O)/C=C\C(=O)O [IRSOGLADINE MALEATE] | Not Active | Not Active | Not Active | Not Active | Not Active | Not Active | Not Active | Not Active |  |  |  |  |  |  |
| Cc1ccc(-c2cc(C(F)(F)F)nn2-c2ccc(S(N)(=O)=O)cc2)cc1 [CELECOXIB] | Not Active | Not Active | Not Active | Not Active | Not Active | Not Active | Not Active | Not Active |  |  |  |  |  |  |
| CCC1(c2ccc(N)cc2)CCC(=O)NC1=O (stereo not given) [AMINOGLUTETHIMIDE] | Not Active | Not Active | Not Active | Not Active | Not Active | Not Active | Not Active | Not Active |  |  |  |  |  |  |
| CC1(C)S[C@@H]2[C@H](NC(=O)Cc3ccccc3)C(=O)N2[C@H]1C(=O)O [PENICILLIN G] | Not Active | Not Active | Not Active | Not Active | Not Active | Not Active |  |  |  |  |  |  |  |  |
| N=C(N)NCCN1CCCCCCC1 [GUANETHIDINE] | Not Active | Not Active | Not Active | Not Active | Not Active | Not Active |  |  |  |  |  |  |  |  |
| Nc1c(Br)cc(Br)cc1CN[C@H]1CC[C@H](O)CC1 [AMBROXOL] | Not Active | Not Active | Not Active | Not Active | Not Active | Not Active |  |  |  |  |  |  |  |  |
| C[C@]12CC[C@@H]3c4ccc(O)cc4CC[C@H]3[C@@H]1CCC2=O [ESTRONE] | Not Active | Not Active | Not Active | Not Active | Not Active | Not Active |  |  |  |  |  |  |  |  |
| O=C(CCCN1CC=C(n2c(=O)[nH]c3ccccc32)CC1)c1ccc(F)cc1 [DROPERIDOL] |  |  |  | Not Active | Not Active | Not Active | Not Active | Not Active | 2850 | 1900 |  |  |  |  |
| CN(C)c1nc(N(C)C)nc(N(C)C)n1 [ALTRETAMINE] | Not Active | Not Active | Not Active | Not Active | Not Active | Not Active |  |  |  |  |  |  |  |  |
